Structures can show the parent of a compound that is named as a salt.
Target: kinase domain of IRE1 alpha (His-tagged kinase dead construct KR, AA G547-L977, D688N) (Homo sapiens (Human), UniProt O75460, D688N)
Assay: IRE1α TR-FRET competition binding assay
Settings: competition with Kinase Tracer 236, 0.1 μM; one hour at room temperature
How it was run: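 Sf9-expressed kinase-dead KR construct (0.006 μM final) pre-incubated 1 h at 4° C with Eu anti-His antibody (0.002 μM) in HEPES pH 7.5/MgCl2/Brij/DTT buffer; Kinase Tracer 236 (ATP-competitive probe, 0.1 μM final) added with compound. 1 h at room temperature; tracer displacement read by TR-FRET (665/615 nm).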

Sequence of kinase domain of IRE1 alpha (His-tagged kinase dead construct KR, AA G547-L977, D688N) (O75460 547-977 D688N): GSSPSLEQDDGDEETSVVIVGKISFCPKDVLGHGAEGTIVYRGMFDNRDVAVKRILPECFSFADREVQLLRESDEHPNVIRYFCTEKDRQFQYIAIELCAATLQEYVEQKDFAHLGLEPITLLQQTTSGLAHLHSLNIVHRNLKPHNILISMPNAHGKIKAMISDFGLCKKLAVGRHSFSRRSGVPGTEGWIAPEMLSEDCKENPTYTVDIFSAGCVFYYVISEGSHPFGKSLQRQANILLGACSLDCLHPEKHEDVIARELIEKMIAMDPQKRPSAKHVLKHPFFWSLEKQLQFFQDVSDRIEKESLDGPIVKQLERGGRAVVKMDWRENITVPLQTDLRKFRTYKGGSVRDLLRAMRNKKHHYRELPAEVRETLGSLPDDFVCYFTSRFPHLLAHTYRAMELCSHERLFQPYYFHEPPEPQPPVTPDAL

| Structure (SMILES) | IC50 [nM] |
| --- | --- |
| N#Cc1cc(Cl)ccc1CS(=O)(=O)Nc1c(F)cc(Oc2ncccc2-c2ccnc(N[C@@H]3CNC[C@@H](F)C3)n2)c(F)c1F [Compound 362] | 0.2 |
| O=S(=O)(Cc1ccc(C(F)(F)F)cc1)Nc1c(F)cc(Oc2ncccc2-c2ccnc(N[C@@H]3CNC[C@@H](F)C3)n2)c(F)c1F [Compound 370, N-(2,3,6-Trifluoro-4-((3-(2-(((3S,5S)-5-fluoropiperidin-3-yl)amino)pyrimidin-4-yl)pyridin-2-yl)oxy)phenyl)-1-(4-(trifluoromethyl)phenyl)methanesulfonamide] | 2 |
| COc1cc(Oc2ncccc2-c2ccnc(N[C@@H]3CNC[C@@H](F)C3)n2)cc(F)c1NS(=O)(=O)Cc1ccccc1 [Compound 296, N-(2-Fluoro-4-((3-(2-(((3S,5S)-5-fluoropiperidin-3-yl)amino)pyrimidin-4-yl)pyridin-2-yl)oxy)-6-methoxyphenyl)-1-phenylmethanesulfonamide] | 14 |
| Cc1cc(NS(=O)(=O)C(C)c2ccccc2)c(F)c(F)c1Oc1ncccc1-c1ccnc(N[C@@H]2CNC[C@@H](F)C2)n1 (single isomer, unassigned) [Compound 313, hydrochloride] | 1.2 |
| O=S(=O)(CC1CCC1(F)F)Nc1ccc(Oc2ncccc2-c2ccnc(N[C@H]3CCCNC3)n2)c(F)c1F (stereo partly drawn) [Compound 192, N-(2,3-difluoro-4-((3-(2-(((S)-piperidin-3-yl)amino)pyrimidin-4-yl)pyridin-2-yl)oxy)phenyl)-1-(2,2-difluorocyclobutyl)methanesulfonamide hydrochloride] | 9.7 |
| O=S(=O)(Cc1ccccc1F)Nc1c(F)cc(Oc2ncccc2-c2ccnc(NC3CNCC(C4CC4)C3)n2)c(F)c1F (single isomer, unassigned) [Compound 327, N-(4-((3-(2-((5-Cyclopropylpiperidin-3-yl)amino)pyrimidin-4-yl)pyridin-2-yl)oxy)-2,3,6-trifluorophenyl)-1-(2-fluorophenyl)methanesulfonamide] | 0.26 |
| OC(CNc1cccc(Oc2ncccc2-c2ccnc(N[C@H]3CCCNC3)n2)c1F)C(F)(F)F (single isomer, unassigned) [Compound 200] | 530 |
| O=C(Nc1ccc(Oc2ncccc2-c2ccnc(N[C@@H]3CNC[C@@H](F)C3)n2)cc1)Nc1cccc(C(F)(F)F)c1 [Compound 276, 1-(4-((3-(2-(((3S,5S)-5-Fluoropiperidin-3-yl)amino)pyrimidin-4-yl)pyridin-2-yl)oxy)phenyl)-3-(3-(trifluoromethyl)phenyl)urea] | 180 |
| O=S(=O)(Cc1cccc(Cl)c1)Nc1c(F)cc(Oc2ncccc2-c2ccnc(N[C@@H]3CNC[C@@H](F)C3)n2)c(F)c1F [Compound 353, 1-(3-Chlorophenyl)-N-[2,3,6-trifluoro-4-[[3-[2-[[(3S,5S)-5-fluoro-3-piperidyl]amino]pyrimidin-4-yl]-2-pyridyl]oxy]phenyl]methanesulfonamide] | 0.3 |
| N#Cc1ccccc1CS(=O)(=O)Nc1c(F)cc(Oc2ncccc2-c2ccnc(N[C@@H]3CNC[C@@H](F)C3)n2)c(F)c1F [Compound 358] | 0.3 |
| Cc1ccc(CS(=O)(=O)Nc2c(F)cc(Oc3ncccc3-c3ccnc(N[C@@H]4CNC[C@@H](F)C4)n3)c(F)c2F)cc1 [Compound 375, 1-p-Tolyl-N-(2,3,6-trifluoro-4-((3-(2-(((3S,5S)-5-fluoropiperidin-3-yl)amino)pyrimidin-4-yl)pyridin-2-yl)oxy)phenyl)methanesulfonamide] | 0.4 |
| Cc1cc(NS(=O)(=O)c2ccccc2Cl)cc(C)c1Oc1ncccc1-c1ccnc(N[C@H]2CCCNC2)n1 [Compound 131, (S)-2-Chloro-N-(3,5-dimethyl-4-((3-(2-(piperidin-3-ylamino)pyrimidin-4-yl)pyridin-2-yl)oxy)phenyl)benzenesulfonamide hydrochloride] | 59 |
| O=S(=O)(Cc1ccccc1F)Nc1c(F)cc(Oc2ncccc2-c2ccnc(NC3CNCC(C4CC4)C3)n2)c(F)c1F (single isomer, unassigned) [Compound 325, N-(4-((3-(2-((5-Cyclopropylpiperidin-3-yl)amino)pyrimidin-4-yl)pyridin-2-yl)oxy)-2,3,6-trifluorophenyl)-1-(2-fluorophenyl)methanesulfonamide] | 22 |
| Cc1c(NC(=O)Cc2ccc(Cl)cc2)ccc(Oc2ncccc2-c2ccnc(N[C@H]3CCCNC3)n2)c1C [Compound 130, (S)-2-(4-Chlorophenyl)-N-(2,3-dimethyl-4-((3-(2-(piperidin-3-ylamino)pyrimidin-4-yl)pyridin-2-yl)oxy)phenyl)acetamide] | 170 |
| O=S(=O)(Cc1cc(F)ccc1F)Nc1c(F)cc(Oc2ncccc2-c2ccnc(N[C@@H]3CNC[C@@H](F)C3)n2)c(F)c1F [Compound 378, 1-(2,5-Difluorophenyl)-N-(2,3,6-trifluoro-4-((3-(2-(((3S,5S)-5-fluoropiperidin-3-yl)amino)pyrimidin-4-yl)pyridin-2-yl)oxy)phenyl)methanesulfonamide] | 1.1 |

Continued, values first:

| IC50 [nM] | Structure (SMILES) |
| --- | --- |
| 2.5 | O=S(=O)(Cc1ccccc1)Nc1c(F)cc(Oc2ncccc2-c2ccnc(N[C@@H]3CNC[C@@H](F)C3)n2)c(F)c1F [Compound 176, 1-Phenyl-N-(2,3,6-trifluoro-4-((3-(2-(((3S,5S)-5-fluoropiperidin-3-yl)amino)pyrimidin-4-yl)pyridin-2-yl)oxy)phenyl)methanesulfonamide] |
| 40 | COc1ccccc1S(=O)(=O)Nc1ccc(Oc2ncccc2-c2ccnc(N[C@H]3CCCNC3)n2)c(F)c1F [Compound 224, (S)-N-(2,3-difluoro-4-((3-(2-(piperidin-3-ylamino)pyrimidin-4-yl)pyridin-2-yl)oxy)phenyl)-2-methoxybenzenesulfonamide] |
| 4.5 | Cc1cc(NS(=O)(=O)Cc2ccccc2)c(F)c(F)c1Oc1ncccc1-c1ccnc(N[C@H]2CCCNC2)n1 [Compound 155, (S)-N-(2,3-difluoro-5-methyl-4-((3-(2-(piperidin-3-ylamino)pyrimidin-4-yl)pyridin-2-yl)oxy)phenyl)-1-phenylmethanesulfonamide] |
| 0.36 | O=S(=O)(Cc1ccccc1)Nc1c(F)cc(Oc2ncccc2-c2ccnc(NC3CNCC4(C3)CC4(F)F)n2)c(F)c1F (single isomer, unassigned) [Compound 301, N-(4-((3-(2-((1,1-Difluoro-5-azaspiro[2.5]octan-7-yl)amino)pyrimidin-4-yl)pyridin-2-yl)oxy)-2,3,6-trifluorophenyl)-1-phenylmethanesulfonamide] |
| 370 | CCCS(=O)(=O)Nc1cccc(Oc2ncccc2-c2ccnc(N[C@H]3CCCNC3)n2)c1F [Compound 144, (S)—N-(2-Fluoro-3-((3-(2-(piperidin-3-ylamino)pyrimidin-4-yl)pyridin-2-yl)oxy)phenyl)propane-1-sulfonamide hydrochloride] |
| 8.7 | CC(F)(F)CCS(=O)(=O)Nc1ccc(Oc2ncccc2-c2ccnc(N[C@H]3CCCNC3)n2)c(F)c1F [Compound 149, (S)-N-(2,3-difluoro-4-((3-(2-(piperidin-3-ylamino)pyrimidin-4-yl)pyridin-2-yl)oxy)phenyl)-3,3-difluorobutane-1-sulfonamide hydrochloride] |
| 120 | O=S(=O)(Cc1ccccc1)Nc1cccc(Oc2ncccc2-c2ccnc(N[C@H]3CCCNC3)n2)c1 [Compound 133, (S)-1-Phenyl-N-(3-((3-(2-(piperidin-3-ylamino)pyrimidin-4-yl)pyridin-2-yl)oxy)phenyl)methanesulfonamide hydrochloride] |
| 15 | O=S(=O)(Cc1ccccc1)Nc1ccc(Cl)c(Oc2ncccc2-c2ccnc(N[C@H]3CCCNC3)n2)c1F [Compound 138, (S)—N-(4-Chloro-2-fluoro-3-((3-(2-(piperidin-3-ylamino)pyrimidin-4-yl)pyridin-2-yl)oxy)phenyl)-1-phenylmethanesulfonamide] |
| 0.3 | CC(c1ccc(C#N)cc1)S(=O)(=O)Nc1ccc(Oc2ncccc2-c2ccnc(N[C@H]3CCCNC3)n2)c(F)c1F (stereo partly drawn) [Compound 379, 1-(4-Cyanophenyl)-N-(2,3-difluoro-4-((3-(2-(((S)-piperidin-3-yl)amino)pyrimidin-4-yl)pyridin-2-yl)oxy)phenyl)ethane-1-sulfonamide] |
| 7 | O=S(=O)(Cc1ccncc1)Nc1ccc(Oc2ncccc2-c2ccnc(N[C@H]3CCCNC3)n2)c(F)c1F [Compound 234, (S)-N-(2,3-difluoro-4-(3-(2-(piperidin-3-ylamino)pyrimidin-4-yl)pyridin-2-yloxy)phenyl)-1-(pyridin-4-yl)methanesulfonamide] |
| 200 | Cc1ccc(NS(=O)(=O)Cc2ccccc2)cc1Oc1ncccc1-c1ccnc(N[C@H]2CCCNC2)n1 [Compound 136, (S)—N-(4-Methyl-3-((3-(2-(piperidin-3-ylamino)pyrimidin-4-yl)pyridin-2-yl)oxy)phenyl)-1-phenylmethanesulfonamide hydrochloride] |
| 8.4 | Cc1c(Oc2ncccc2-c2ccnc(N[C@H]3CCCNC3)n2)ccc(NS(=O)(=O)Cc2ccccc2)c1F [Compound 237, N-[2-Fluoro-3-methyl-4-[[3-[2-[[(3S)-3-piperidyl]amino]pyrimidin-4-yl]-2-pyridyl]oxy]phenyl]-1 phenylmethanesulfonamide] |
| 9.4 | O=S(=O)(Cc1ccccc1)Nc1ccc(Oc2ncccc2-c2ccnc(NC34CNCC3C4)n2)c(F)c1F (single isomer, unassigned) [Compound 185, N-(4-((3-(2-(3-Azabicyclo[3.1.0]hexan-5-ylamino)pyrimidin-4-yl)-2-pyridyl)oxy)-2,3-difluoro-phenyl)-1-phenyl-methanesulfonamide] |
| 8.9 | CC(F)(F)C1CNCC(Nc2nccc(-c3cccnc3Oc3cc(F)c(NS(=O)(=O)Cc4ccccc4)c(F)c3F)n2)C1 (racemic) [Compound 337, N-(4-((3-(2-((5-(1,1-Difluoroethyl)piperidin-3-yl)amino)pyrimidin-4-yl)pyridin-2-yl)oxy)-2,3,6-trifluorophenyl)-1-phenylmethanesulfonamide hydrochloride] |
